System: C57BL/6 mice
Experiment: Von Frey test of mechanical hypersensitivity
Type: in vivo, Mice (Mus musculus)
Protocol: We utilized WT C57BL/6 mice purchased from Envigo (Indianapolis, IN, USA). Total sixteen adult male mice (8–9 weeks, 22 ± 2 g) were housed in four ventilated Plexiglas cages (4 mice per cage). Four mice were tested in each group. Mice are maintained at temperature (21 °C) in an animal housing facility accredited by the Association for Assessment and Accreditation of Laboratory Animal Care with a reversed 12-hour dark-light cycle (lights off at 1000, lights on at 2200). This study was carried out in accordance with the recommendations of the National Institutes of Health Guide for the Care and Use of Laboratory Animals. The protocol (#1201000592 by Y.F.L. for Zebrafish, and #1605001408 by R.M.vR for mice) was approved by the Purdue University Institutional Animal Care and Use Committee.
Von Frey filaments (2.44 (0.04 g)–4.31 (2 g)) and a grid platform (#58011 and #57816, Stoelting, WI, USA) were used to test mechanical hypersensitivity of mice. A modified up-and-down method was utilized as previously described. […] Drug-induced mechanical hypersensitivity was measured 30 minutes after the second injection. […]
All data are presented as means ± standard error of the mean (SEM). For our in vitro statistical analysis, AUC of calcium influx (RFU) was measured to plot dose-response curves, which were further analyzed by nonlinear regression analysis. […] EC50 values of the dose-response curves were further used to plot Schild curves, and the curves were analyzed with linear regression analysis. For the mice von Frey test, mechanical thresholds were analyzed with two-way ANOVA followed by a Bonferonni test for multiple comparison analysis. […] AUC of all curves were measured and analyzed by one-way ANOVA. […] For our time-course average displacement graph, we used 2nd degree polynomial smoothing for a better representation; however, we used data before smoothing for all statistical analysis and quantification. All in vitro and in vivo data were evaluated using GraphPad Prism 7 (GraphPad Software, La Jolla, CA) unless it stated otherwise.

SMILES	mechanical thresholds of von Frey filaments, pre- vs post-drug (ASP7663 1 mg/kg i.p., measured 30 minutes after injection)	block of ASP7663-induced mechanical hypersensitivity (HC-030031 100 mg/kg p.o. 30 min before ASP7663 1 mg/kg i.p.)	mechanical thresholds of von Frey filaments, pre- vs post-drug (HC-030031 100 mg/kg p.o. alone)
CC(C)CN1C(=O)/C(=C/C(=O)O)c2cccc(F)c21 [ASP7663]	significantly decreased mechanical thresholds	–	–
CC(C)c1ccc(NC(=O)Cn2cnc3c2c(=O)n(C)c(=O)n3C)cc1 [HC-030031]	–	blocked mechanical hypersensitivity induced by ASP7663	did not show a statistical significance between pre- and post-drug mechanical thresholds
